Molecular target: T1, ΔF508-CFTR (Homo sapiens, UniProt P13569, DEL508-508)
T1 construct: expressed in transfected cells
Experiment: Membrane potential optical assay for ΔF508-CFTR correction (single-addition HTS format)
Type: cell-based
Details: NIH3T3 mouse fibroblasts stably expressing ΔF508-CFTR; 16-24 hrs with compound; activation with 10 μM forskolin and 20 μM genistein; read-out: BinnedMaxEfficacy (PercentActivity)
Description: Membrane potential optical methods for assaying ΔF508-CFTR modulation properties of compounds.
The assay utilizes fluorescent voltage sensing dyes to measure changes in membrane potential using a fluorescent plate reader (e.g., FLIPR III, Molecular Devices, Inc.) as a readout for increase in functional ΔF508-CFTR in NIH 3T3 cells. The driving force for the response is the creation of a chloride ion gradient in conjunction with channel activation by a single liquid addition step after the cells have previously been treated with compounds and subsequently loaded with a voltage sensing dye.
To identify small molecules that correct the trafficking defect associated with ΔF508-CFTR; a single-addition HTS assay format was developed. Assay Plates containing cells are incubated for ˜2-4 hours in tissue culture incubator at 37° C., 5% CO2, 90% humidity. Cells are then ready for compound exposure after adhering to the bottom of the assay plates.
The cells were incubated in serum-free medium for 16-24 hrs in tissue culture incubator at 37° C., 5% CO2, 90% humidity in the presence or absence (negative control) of test compound. The cells were subsequently rinsed 3× with Krebs Ringers solution and loaded with a voltage sensing redistribution dye. To activate ΔF508-CFTR, 10 μM forskolin and the CFTR potentiator, genistein (20 μM), were added along with Cl^−-free medium to each well. The addition of Cl^−-free medium promoted Cl^− efflux in response to ΔF508-CFTR activation and the resulting membrane depolarization was optically monitored using voltage sensor dyes.
Bath Solution #1: (in mM) NaCl 160, KCl 4.5, CaCl2 2, MgCl2 1, HEPES 10, pH 7.4 with NaOH.
Chloride-free bath solution: Chloride salts in Bath Solution #1 are substituted with gluconate salts.
NIH3T3 mouse fibroblasts stably expressing ΔF508-CFTR are used for optical measurements of membrane potential. The cells are maintained at 37° C. in 5% CO2 and 90% humidity in Dulbecco's modified Eagle's medium supplemented with 2 mM glutamine, 10% fetal bovine serum, 1×NEAA, β-ME, 1× pen/strep, and 25 mM HEPES in 175 cm^2 culture flasks. For all optical assays, the cells were seeded at ˜20,000/well in 384-well matrigel-coated plates and cultured for 2 hrs at 37° C. before culturing at 27° C. for 24 hrs. for the potentiator assay. For the correction assays, the cells are cultured at 27° C. or 37° C. with and without compounds for 16-24 hours.

T1 sequence (P13569 with tags, fused parts or gaps DEL508-508): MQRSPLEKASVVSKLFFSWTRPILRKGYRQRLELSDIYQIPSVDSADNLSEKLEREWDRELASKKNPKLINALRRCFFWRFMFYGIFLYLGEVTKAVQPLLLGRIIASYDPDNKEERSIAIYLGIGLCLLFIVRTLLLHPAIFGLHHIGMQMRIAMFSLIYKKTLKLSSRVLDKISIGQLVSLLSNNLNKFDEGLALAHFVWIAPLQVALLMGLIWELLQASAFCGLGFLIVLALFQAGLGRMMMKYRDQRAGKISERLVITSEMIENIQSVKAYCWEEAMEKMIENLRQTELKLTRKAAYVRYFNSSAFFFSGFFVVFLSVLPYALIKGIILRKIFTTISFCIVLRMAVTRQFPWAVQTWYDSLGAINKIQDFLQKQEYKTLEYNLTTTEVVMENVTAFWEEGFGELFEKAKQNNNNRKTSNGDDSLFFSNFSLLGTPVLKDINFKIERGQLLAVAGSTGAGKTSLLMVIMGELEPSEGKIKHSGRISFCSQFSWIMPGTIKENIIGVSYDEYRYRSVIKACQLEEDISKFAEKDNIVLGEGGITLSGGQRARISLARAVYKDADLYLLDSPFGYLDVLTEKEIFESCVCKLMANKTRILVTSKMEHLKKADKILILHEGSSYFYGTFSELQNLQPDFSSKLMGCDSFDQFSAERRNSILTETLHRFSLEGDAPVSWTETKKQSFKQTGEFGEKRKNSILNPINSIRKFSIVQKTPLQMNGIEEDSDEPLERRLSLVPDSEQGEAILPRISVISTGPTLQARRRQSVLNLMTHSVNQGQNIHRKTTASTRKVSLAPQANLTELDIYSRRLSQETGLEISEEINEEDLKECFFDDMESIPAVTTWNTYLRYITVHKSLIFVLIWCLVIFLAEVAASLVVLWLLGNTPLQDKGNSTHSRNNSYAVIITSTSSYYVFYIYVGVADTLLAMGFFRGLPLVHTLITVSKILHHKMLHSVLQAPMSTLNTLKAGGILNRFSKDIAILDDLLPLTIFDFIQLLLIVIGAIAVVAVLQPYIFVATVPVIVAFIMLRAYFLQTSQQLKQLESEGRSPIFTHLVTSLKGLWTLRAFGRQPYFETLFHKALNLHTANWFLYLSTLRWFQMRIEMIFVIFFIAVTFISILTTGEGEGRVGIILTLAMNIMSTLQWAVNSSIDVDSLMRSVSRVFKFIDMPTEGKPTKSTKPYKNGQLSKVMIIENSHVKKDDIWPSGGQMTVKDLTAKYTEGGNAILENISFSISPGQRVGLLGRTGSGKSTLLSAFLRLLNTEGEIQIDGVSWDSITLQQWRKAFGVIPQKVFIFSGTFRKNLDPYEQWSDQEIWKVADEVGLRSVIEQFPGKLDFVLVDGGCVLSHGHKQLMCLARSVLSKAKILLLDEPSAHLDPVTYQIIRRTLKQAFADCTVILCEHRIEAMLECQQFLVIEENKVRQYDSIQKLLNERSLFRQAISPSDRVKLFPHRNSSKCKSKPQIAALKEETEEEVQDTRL

| SMILES | Emax [%] |
| --- | --- |
| Cc1c(NC(=O)C2(c3ccc4c(c3)OC(F)(F)O4)CC2)ccnc1-c1cccc(C(=O)O)c1 [Compound 9] | 25 to 100 |
| Cc1cnc(NC(=O)C2(c3ccc4c(c3)OC(F)(F)O4)CC2)nc1-c1ccc(C(=O)O)cc1 [Compound 11, 4-(2-(1-(2,2-difluorobenzo[d][1,3]dioxol-5-yl)cyclopropanecarboxamido)-5-methylpyrimidin-4-yl)benzoic acid] | 25 to 100 |
| O=C(Nc1ccnc(Cc2ccccc2)c1)C1(c2ccc3c(c2)OCO3)CC1 [Compound 36, 1-(benzo[d][1,3]dioxol-5-yl)-N-(2-benzylpyridin-4-yl)cyclopropanecarboxamide] | > 100 |
| CC(C)c1ccc(NC(=O)C2(c3ccc4c(c3)OCO4)CC2)cn1 [Compound 31, 1-(Benzo[d][1,3]dioxol-5-yl)-N-(6-isopropylpyridin-3-yl)cyclopropanecarboxamide] | 25 to 100 |
| Cc1ccnc(NC(=O)C2(c3ccc4c(c3)OCO4)CC2)n1 [Compound 25, 1-(benzo[d][1,3]dioxol-5-yl)-N-(4-methylpyrimidin-2-yl)cyclopropanecarboxamide] | 25 to 100 |
| COc1ccccc1-c1ccc(NC(=O)C2(c3ccc4c(c3)OCO4)CC2)cn1 [Compound 24, 1-(benzo[d][1,3]dioxol-5-yl)-N-(6-(2-methoxyphenyl)pyridin-3-yl)cyclopropanecarboxamide] | > 100 |
| Cc1ncc(NC(=O)C2(c3ccc4c(c3)OCO4)CC2)cc1-c1ccc(S(=O)(=O)N(C)C)cc1 [Compound 8] | > 100 |
| Cc1cc(O)nc(NC(=O)C2(c3ccc4c(c3)OCO4)CC2)n1 [Compound 35, 1-(benzo[d][1,3]dioxol-5-yl)-N-(4-hydroxy-6-methylpyrimidin-2-yl)cyclopropanecarboxamide] | 25 to 100 |
| O=C(Nc1cncc(Cc2ccccc2)n1)C1(c2ccc3c(c2)OCO3)CC1 [Compound 27, 1-(benzo[d][1,3]dioxol-5-yl)-N-(6-benzylpyrazin-2-yl)cyclopropanecarboxamide] | > 100 |
| CNC(=O)c1ccc(-c2cc(NC(=O)C3(c4ccc5c(c4)OCO5)CC3)cnc2C)cc1 [Compound 16, 4-(5-(1-(benzo[d][1,3]dioxol-5-yl)cyclopropanecarboxamido)-2-methylpyridin-3-yl)-N-methylbenzamide] | 25 to 100 |
| O=C(Nc1ccc(-c2ccccc2)nc1)C1(c2ccc3c(c2)OCO3)CC1 [Compound 32, 1-(benzo[d][1,3]dioxol-5-yl)-N-(6-phenylpyridin-3-yl)cyclopropanecarboxamide] | > 100 |
| COc1ccccc1Cc1ccc(NC(=O)C2(c3ccc4c(c3)OCO4)CC2)nn1 [Compound 4] | > 100 |
| O=C(Nc1cncc(Cc2ccccc2Cl)n1)C1(c2ccc3c(c2)OCO3)CC1 [Compound 13] | > 100 |
| Cc1cnc(NC(=O)C2(c3ccc4c(c3)OC(F)(F)O4)CC2)nc1-c1cccc(C(=O)O)c1 [Compound 45, 3-(2-(1-(2,2-difluorobenzo[d][1,3]dioxol-5-yl)cyclopropanecarboxamido)-5-methylpyrimidin-4-yl)benzoic acid] | 25 to 100 |
| O=C(Nc1ccc(Cc2ccccc2)nc1)C1(c2ccc3c(c2)OCO3)CC1 [Compound 19, 1-(benzo[d][1,3]dioxol-5-yl)-N-(6-benzylpyridin-3-yl)cyclopropanecarboxamide] | > 100 |
| Cc1ncc(NC(=O)C2(c3ccc4c(c3)OCO4)CC2)cc1-c1cccc(C(N)=O)c1 [Compound 17] | 25 to 100 |
| O=C(Nc1ccc(Cc2ccccc2Cl)nn1)C1(c2ccc3c(c2)OCO3)CC1 [Compound 46] | 25 to 100 |
| O=C(Nc1cnc(Cc2ccccc2Cl)cn1)C1(c2ccc3c(c2)OCO3)CC1 [Compound 1, 1-(benzo[d][1,3]dioxol-5-yl)-N-(5-(2-chlorobenzyl)pyrazin-2-yl)cyclopropanecarboxamide] | > 100 |
| Cc1ncc(NC(=O)C2(c3ccc4c(c3)OCO4)CC2)cc1-c1cccc(C(=O)O)c1 [Compound 38, 3-(5-(1-(benzo[d][1,3]dioxol-5-yl)cyclopropanecarboxamido)-2-methylpyridin-3-yl)benzoic acid] | 25 to 100 |
| O=C(N(c1ccnc(C(F)(F)F)c1)c1ccccn1)C1(c2ccc3c(c2)OCO3)CC1 [Compound 41, 1-(benzo[d][1,3]dioxol-5-yl)-N-(pyridin-2-yl)-N-(2-(trifluoromethyl)pyridin-4-yl)cyclopropanecarboxamide] | 25 to 100 |
| O=C(Nc1ccc(CC2CCCCC2)nn1)C1(c2ccc3c(c2)OCO3)CC1 [Compound 5, 1-(benzo[d][1,3]dioxol-5-yl)-N-(6-(cyclohexylmethyl)pyridazin-3-yl)cyclopropanecarboxamide] | 25 to 100 |
| COc1ccc(C2(C(=O)Nc3cnccn3)CC2)cc1 [Compound 21] | 25 to 100 |
| COc1ccccc1Cc1cnc(NC(=O)C2(c3ccc4c(c3)OCO4)CC2)cn1 [Compound 34] | 25 to 100 |
| Cc1ncc(NC(=O)C2(c3ccc4c(c3)OCO4)CC2)cc1-c1cccc(S(=O)(=O)N(C)C)c1 [Compound 6] | 25 to 100 |
| CC(Oc1ccc(Cl)cc1)c1ccnc(NC(=O)C2(c3ccc4c(c3)OCO4)CC2)n1 (stereo not drawn) [Compound 14, 1-(benzo[d][1,3]dioxol-5-yl)-N-(4-(1-(4-chlorophenoxy)ethyl)pyrimidin-2-yl)cyclopropanecarboxamide] | > 100 |
| Cc1ncc(NC(=O)C2(c3ccc4c(c3)OCO4)CC2)cc1-c1ccc(CO)cc1 [Compound 29] | 25 to 100 |
| Cc1ccc(S(=O)(=O)c2ncccc2NC(=O)C2(c3ccc4c(c3)OCO4)CC2)cc1 [Compound 18, 1-(benzo[d][1,3]dioxol-5-yl)-N-(2-tosylpyridin-3-yl)cyclopropanecarboxamide] | > 100 |
| Cc1ncc(NC(=O)C2(c3ccc4c(c3)OCO4)CC2)cc1-c1ccc(C(N)=O)cc1 [Compound 39] | 25 to 100 |

Second part, the compound after the results:

| Emax [%] | SMILES |
| --- | --- |
| > 100 | Cc1ncc(NC(=O)C2(c3ccc4c(c3)OCO4)CC2)cc1-c1cccc(CO)c1 [Compound 40] |
| > 100 | COc1ccccc1Cc1cc(NC(=O)C2(c3ccc4c(c3)OCO4)CC2)ccn1 [Compound 47] |
| > 100 | COc1ccccc1Cc1ccc(NC(=O)C2(c3ccc4c(c3)OCO4)CC2)cn1 [Compound 3] |
| > 100 | O=C(Nc1ccc(-c2ccccc2Cl)nc1)C1(c2ccc3c(c2)OCO3)CC1 [Compound 7, 1-(benzo[d][1,3]dioxol-5-yl)-N-(6-(2-chlorophenyl)pyridin-3-yl)cyclopropanecarboxamide] |
| 25 to 100 | O=C(Nc1ncc2c(n1)-c1ccoc1CC2)C1(c2ccc3c(c2)OCO3)CC1 [Compound 23, 1-(benzo[d][1,3]dioxol-5-yl)-N-(5,6-dihydrofuro[2,3-h]quinazolin-2-yl)cyclopropanecarboxamide] |
| > 100 | COc1ccccc1Cc1cncc(NC(=O)C2(c3ccc4c(c3)OCO4)CC2)n1 [Compound 33] |
| > 100 | O=C(Nc1ccc(Cc2ccccc2Cl)nc1)C1(c2ccc3c(c2)OCO3)CC1 [Compound 37, 1-(benzo[d][1,3]dioxol-5-yl)-N-(6-(2-chlorobenzyl)pyridin-3-yl)cyclopropanecarboxamide] |
| > 100 | O=C(Nc1cnc(Cc2ccccc2)cn1)C1(c2ccc3c(c2)OCO3)CC1 [Compound 12] |
| 25 to 100 | Cc1cnc(NC(=O)C2(c3ccc4c(c3)OC(F)(F)O4)CC2)nc1-c1ccc(=O)[nH]c1 [Compound 28, 1-(2,2-difluorobenzo[d][1,3]dioxol-5-yl)-N-(5-methyl-4-(6-oxo-1,6-dihydropyridin-3-yl)pyrimidin-2-yl)cyclopropanecarboxamide] |
| > 100 | Cc1ncc(NC(=O)C2(c3ccc4c(c3)OCO4)CC2)cc1-c1ccccc1 [Compound 42, 1-(benzo[d][1,3]dioxol-5-yl)-N-(6-methyl-5-phenylpyridin-3-yl)cyclopropanecarboxamide] |
| > 100 | COc1ccccc1Nc1ccc(NC(=O)C2(c3ccc4c(c3)OCO4)CC2)cn1 [Compound 43, 1-(benzo[d][1,3]dioxol-5-yl)-N-(6-(2-methoxyphenylamino)pyridin-3-yl)cyclopropanecarboxamide] |
| > 100 | COc1ccccc1Nc1cnc(NC(=O)C2(c3ccc4c(c3)OCO4)CC2)cn1 [Compound 2, 1-(benzo[d][1,3]dioxol-5-yl)-N-(5-(2-methoxyphenylamino)pyrazin-2-yl)cyclopropanecarboxamide] |
| 25 to 100 | O=C(Nc1ccc(Cc2ccccc2)nn1)C1(c2ccc3c(c2)OCO3)CC1 [Compound 44] |
| 25 to 100 | N#Cc1ccc(NC(=O)C2(c3ccc4c(c3)OCO4)CC2)cn1 [Compound 15, 1-(benzo[d][1,3]dioxol-5-yl)-N-(6-cyanopyridin-3-yl)cyclopropanecarboxamide] |
